Patent US20250236608A1, “EGFR INHIBITORS” (Blueprint Medicines Corporation, priority 2022, published 2025)

Tests used:
[1] = target: EGFR L858R (Homo sapiens (Human), UniProt P00533, L858R); assay: Biochemical EGFR inhibition assay, EGFR L858R; conditions: Caliper mobility shift; 1.0 mM ATP or ATP Km; read-out: Enz EGFR_L858R IC50
[2] = target: EGFR (d746-750) (Homo sapiens (Human), UniProt P00533, DEL746-750); assay: Biochemical EGFR inhibition assay, EGFR (d746-750); conditions: Caliper mobility shift; 1.0 mM ATP or ATP Km; read-out: Enz EGFR_Exon19-del746-750 IC50
EGFR (d746-750), sequence (P00533 other isoform, or with tags, fused parts or gaps del 1-694/del 746-750 limits assumed): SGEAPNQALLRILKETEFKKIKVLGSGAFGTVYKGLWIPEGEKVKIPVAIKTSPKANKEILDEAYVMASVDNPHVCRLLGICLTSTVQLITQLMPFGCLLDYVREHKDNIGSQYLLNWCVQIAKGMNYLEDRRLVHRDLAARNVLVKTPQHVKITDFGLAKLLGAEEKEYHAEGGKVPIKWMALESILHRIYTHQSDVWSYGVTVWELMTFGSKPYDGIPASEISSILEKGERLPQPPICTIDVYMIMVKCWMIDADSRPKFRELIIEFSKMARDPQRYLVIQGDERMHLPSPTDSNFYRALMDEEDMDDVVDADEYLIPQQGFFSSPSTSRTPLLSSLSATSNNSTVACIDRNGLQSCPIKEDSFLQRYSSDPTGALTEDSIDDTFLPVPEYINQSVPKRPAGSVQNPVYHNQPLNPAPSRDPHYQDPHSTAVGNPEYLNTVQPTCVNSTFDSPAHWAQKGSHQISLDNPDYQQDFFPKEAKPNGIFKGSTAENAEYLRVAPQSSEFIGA

[3] = target: pEGFR (Tyr1068) in PC-9 cells (Ex19Del) (Homo sapiens (Human), UniProt P00533, DEL746-750); assay: PC-9 pEGFR AlphaLISA assay; format: cell-based; conditions: 4 hours incubation, p-EGFR (Tyr1068) AlphaLISA, read-out: Ext pEGFR_PC-9 Ex19Del IC50
pEGFR (Tyr1068) in PC-9 cells (Ex19Del), sequence (P00533 other isoform, or with tags, fused parts or gaps del 746-750): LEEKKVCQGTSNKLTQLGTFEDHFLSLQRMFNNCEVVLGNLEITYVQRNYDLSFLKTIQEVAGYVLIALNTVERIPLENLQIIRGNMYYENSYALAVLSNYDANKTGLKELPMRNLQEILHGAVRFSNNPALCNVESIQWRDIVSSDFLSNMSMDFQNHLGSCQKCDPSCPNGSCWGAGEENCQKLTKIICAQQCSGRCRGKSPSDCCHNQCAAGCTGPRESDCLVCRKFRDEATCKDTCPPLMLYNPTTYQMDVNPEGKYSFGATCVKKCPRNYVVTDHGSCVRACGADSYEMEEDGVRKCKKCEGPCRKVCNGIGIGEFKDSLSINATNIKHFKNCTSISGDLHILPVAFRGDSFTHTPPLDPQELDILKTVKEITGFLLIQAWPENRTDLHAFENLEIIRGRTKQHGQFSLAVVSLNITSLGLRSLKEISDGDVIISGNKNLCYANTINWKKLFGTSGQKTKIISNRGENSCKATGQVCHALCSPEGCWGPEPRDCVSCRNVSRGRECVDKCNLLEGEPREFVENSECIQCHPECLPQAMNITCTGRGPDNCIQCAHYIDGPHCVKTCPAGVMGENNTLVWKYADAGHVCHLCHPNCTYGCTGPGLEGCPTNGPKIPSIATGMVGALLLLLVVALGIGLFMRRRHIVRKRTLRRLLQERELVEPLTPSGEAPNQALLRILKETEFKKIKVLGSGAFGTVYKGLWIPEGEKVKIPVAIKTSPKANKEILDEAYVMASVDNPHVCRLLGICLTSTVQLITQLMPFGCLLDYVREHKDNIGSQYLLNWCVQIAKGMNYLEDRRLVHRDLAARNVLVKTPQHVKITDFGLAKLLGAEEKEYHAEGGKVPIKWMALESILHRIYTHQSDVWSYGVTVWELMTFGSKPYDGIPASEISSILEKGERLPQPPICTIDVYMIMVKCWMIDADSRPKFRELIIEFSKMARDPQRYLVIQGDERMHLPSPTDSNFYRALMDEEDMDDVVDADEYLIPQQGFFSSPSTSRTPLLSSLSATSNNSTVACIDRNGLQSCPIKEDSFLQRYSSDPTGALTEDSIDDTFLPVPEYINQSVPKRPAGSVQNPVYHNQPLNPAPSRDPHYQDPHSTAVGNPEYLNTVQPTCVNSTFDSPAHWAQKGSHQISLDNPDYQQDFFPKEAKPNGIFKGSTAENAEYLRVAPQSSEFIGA
Method in brief: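 Cells seeded in phenol-free DMEM with 10% FBS adhered overnight at 37° C./5% CO2, then were exposed for 4 hours to a 4-fold, 10-point compound dilution series. After lysis, phospho-EGFR was read by AlphaLISA SureFire Ultra, and IC50 was fitted from percent inhibition versus log concentration.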

EGFR L858R, sequence (P00533 25-1210 L858R): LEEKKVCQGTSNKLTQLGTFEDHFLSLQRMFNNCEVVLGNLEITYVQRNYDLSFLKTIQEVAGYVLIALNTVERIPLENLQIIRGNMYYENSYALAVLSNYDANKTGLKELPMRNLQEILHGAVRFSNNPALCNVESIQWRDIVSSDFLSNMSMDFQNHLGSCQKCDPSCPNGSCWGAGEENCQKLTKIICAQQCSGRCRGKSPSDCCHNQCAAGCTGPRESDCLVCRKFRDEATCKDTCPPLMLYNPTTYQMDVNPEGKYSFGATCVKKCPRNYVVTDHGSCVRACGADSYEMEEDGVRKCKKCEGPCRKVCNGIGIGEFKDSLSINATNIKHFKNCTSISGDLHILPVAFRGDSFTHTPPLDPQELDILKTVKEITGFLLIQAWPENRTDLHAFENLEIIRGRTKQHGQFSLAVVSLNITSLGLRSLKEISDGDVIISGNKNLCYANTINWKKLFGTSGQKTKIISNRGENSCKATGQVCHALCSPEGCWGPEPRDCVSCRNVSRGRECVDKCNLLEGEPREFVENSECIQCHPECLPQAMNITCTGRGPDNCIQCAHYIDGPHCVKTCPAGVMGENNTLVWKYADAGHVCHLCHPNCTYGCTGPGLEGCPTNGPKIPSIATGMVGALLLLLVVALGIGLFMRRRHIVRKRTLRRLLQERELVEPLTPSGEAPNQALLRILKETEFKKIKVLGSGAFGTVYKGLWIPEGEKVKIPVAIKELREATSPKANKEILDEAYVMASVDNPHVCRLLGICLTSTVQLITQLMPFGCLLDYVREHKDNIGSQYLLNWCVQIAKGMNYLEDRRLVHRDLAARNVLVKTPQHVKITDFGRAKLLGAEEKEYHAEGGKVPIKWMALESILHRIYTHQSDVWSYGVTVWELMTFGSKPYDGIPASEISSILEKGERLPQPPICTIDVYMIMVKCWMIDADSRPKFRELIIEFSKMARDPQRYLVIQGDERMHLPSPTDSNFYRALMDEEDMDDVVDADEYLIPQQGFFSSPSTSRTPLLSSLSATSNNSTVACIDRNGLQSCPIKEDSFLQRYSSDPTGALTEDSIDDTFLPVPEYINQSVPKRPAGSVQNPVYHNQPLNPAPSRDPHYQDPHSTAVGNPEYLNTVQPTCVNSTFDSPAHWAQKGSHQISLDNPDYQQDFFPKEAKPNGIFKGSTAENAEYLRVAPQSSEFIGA

| Compound | IC50 [1] [nM] | IC50 [2] [nM] | IC50 [3] [nM] |
| --- | --- | --- | --- |
| CCc1cc2ncnc(-c3cn(C)nc3-c3ccccc3)c2nc1NC(=O)C12COCC1C2 (stereo not drawn) [Example 452, N-(7-ethyl-4-(1-methyl-3-phenyl-1H-pyrazol-4-yl)pyrido[3,2-d]pyrimidin-6-yl)-3-oxabicyclo[3.1.0]hexane-1-carboxamide] | 28.9 | 5.3 | 14.8 |
| Cc1c(-c2ncnc3cc(-c4cnn(C)c4)ccc23)c(-c2ccccc2)nn1C [Example 480, 4-(1,5-dimethyl-3-phenyl-1H-pyrazol-4-yl)-7-(1-methyl-1H-pyrazol-4-yl)quinazoline] | 5.6 | 4.4 | 69.1 |
| COc1cc2ncnc(-c3cn(C)nc3-c3ccccc3)c2cc1NC(=O)c1cncnc1 [Example 193, N-(7-methoxy-4-(1-methyl-3-phenyl-1H-pyrazol-4-yl)quinazolin-6-yl)pyrimidine-5-carboxamide] | 1.5 | 0.7 | 2.9 |
| COc1cc2ncnc(-c3cn(C)nc3-c3ccccc3)c2cc1OC(=O)N1C(C)CN(C)C[C@H]1C (stereo in doubt) [Example 90, 7-methoxy-4-(1-methyl-3-phenyl-1H-pyrazol-4-yl)quinazolin-6-yl (2R,6R)-2,4,6-trimethylpiperazine-1-carboxylate] | 14 | 8.5 | 31.6 |
| CCn1cc(-c2ncnc3cc(OC)c(OC(=O)N4CCN(C)C[C@@H]4C)cc23)c(-c2ccccc2)n1 [Example 95, 4-(1-ethyl-3-phenyl-1H-pyrazol-4-yl)-7-methoxyquinazolin-6-yl(S)-2,4-dimethylpiperazine-1-carboxylate] | 3 | 1.7 | 2.4 |
| COc1cc2ncnc(-c3cn(C)nc3-c3ccccc3)c2nc1NC(=O)[C@]12CN(C)C[C@H]1C2(F)F (single isomer, unassigned) [Example 416, (1R,5S)-6,6-difluoro-N-(7-methoxy-4-(1-methyl-3-phenyl-1H-pyrazol-4-yl)pyrido[3,2-d]pyrimidin-6-yl)-3-methyl-3-azabicyclo[3.1.0]hexane-1-carboxamide or (1S,5R)-6,6-difluoro-N-(7-methoxy-4-(1-methyl-3-phenyl-1H-pyrazol-4-yl)pyrido[3,2-d]pyrimidin-6-yl)-3-methyl-3-azabicyclo[3.1.0]hexane-1-carboxamide] | 1.8 | 1 | 0.8 |
| COc1cc2ncnc(-c3cn(C)nc3-c3ccccc3)c2nc1OC(C)c1cscn1 (stereo not drawn) [Example 31, 4-(1-((7-methoxy-4-(1-methyl-3-phenyl-1H-pyrazol-4-yl)pyrido[3,2-d]pyrimidin-6-yl)oxy)ethyl)thiazole] | 1 | 0.8 | 1.1 |
| [2H]C([2H])([2H])Oc1cc2ncnc(-c3cn(C([2H])([2H])[2H])nc3-c3ccccc3)c2nc1NC(=O)C1(C(F)(F)F)CC1 [Example 486, N-(7-(methoxy-d3)-4-(1-(methyl-d3)-3-phenyl-1H-pyrazol-4-yl)pyrido[3,2-d]pyrimidin-6-yl)-1-(trifluoromethyl)cyclopropane-1-carboxamide] | 2.2 | 0.7 | 1.5 |
| COc1cc2ncnc(-c3cn(C4COC4)nc3-c3ccccc3)c2cc1OC(=O)N1CCN(C)C[C@@H]1C [Example 69, 7-methoxy-4-(1-(oxetan-3-yl)-3-phenyl-1H-pyrazol-4-yl)quinazolin-6-yl (S)-2,4-dimethylpiperazine-1-carboxylate] | 7.1 | 3.1 | 5.8 |
| COc1cc2ncnc(-c3cn(C)nc3-c3ccccc3F)c2cc1NC(=O)c1ccc(C2CC2)nc1 [Example 230, 6-cyclopropyl-N-(4-(3-(2-fluorophenyl)-1-methyl-1H-pyrazol-4-yl)-7-methoxyquinazolin-6-yl) nicotinamide] | 1.5 | 0.9 | 2.3 |
| COc1cc2ncnc(-c3cn(C)nc3-c3ccccc3)c2nc1-c1ccc2c(c1)CNC2=O [Example 152, 5-(7-methoxy-4-(1-methyl-3-phenyl-1H-pyrazol-4-yl)pyrido[3,2-d]pyrimidin-6-yl) isoindolin-1-one] | 2 | 1 | 1.9 |
| CCn1cc(C(=O)Nc2cc3c(-c4cn(CC(F)F)nc4-c4ccccc4)ncnc3cc2OC)cn1 [Example 268, N-(4-(1-(2,2-difluoroethyl)-3-phenyl-1H-pyrazol-4-yl)-7-methoxyquinazolin-6-yl)-1-ethyl-1H-pyrazole-4-carboxamide] | 1.8 | 1.1 | 0.8 |
| COc1cc2ncnc(-c3cn(C)nc3-c3ccccc3)c2nc1O[C@H](C)c1nccs1 [Example 32, (R)-2-(1-((7-methoxy-4-(1-methyl-3-phenyl-1H-pyrazol-4-yl)pyrido[3,2-d]pyrimidin-6-yl)oxy)ethyl)thiazole] | 1.1 | 0.8 | 1.2 |

Now from value to molecule:

| IC50 [1] [nM] | IC50 [2] [nM] | IC50 [3] [nM] | Compound |
| --- | --- | --- | --- |
| 1.6 | 1 | 1.7 | CCOc1cc2ncnc(-c3cn(C)nc3-c3ccccc3)c2cc1NC(=O)[C@]12COC[C@H]1C2 [Example 291, (1S,5S)—N-(7-ethoxy-4-(1-methyl-3-phenyl-1H-pyrazol-4-yl)quinazolin-6-yl)-3-oxabicyclo[3.1.0]hexane-1-carboxamide] |
| 1.8 | 1.2 | 2.1 | COCCOc1cc2ncnc(-c3cn(CC(F)F)nc3-c3ccccc3)c2cc1OC [Example 16, 4-(1-(2,2-difluoroethyl)-3-phenyl-1H-pyrazol-4-yl)-6-methoxy-7-(2-methoxyethoxy)quinazoline] |
| 4.5 | 2.3 | 7.8 | COc1cc2ncnc(-c3cn(C)nc3-c3ccccc3)c2cc1NC(=O)C12COCC1C2 (stereo not drawn) [Example 278, N-(7-methoxy-4-(1-methyl-3-phenyl-1H-pyrazol-4-yl)quinazolin-6-yl)-3-oxabicyclo[3.1.0]hexane-1-carboxamide] |
| 5 | 1.7 | 4.7 | COc1cc2ncnc(-c3cn(C)nc3-c3ccccc3)c2cc1NC(=O)C(C)N(C)C (stereo not drawn) [Example 220, 2-(dimethylamino)-N-(7-methoxy-4-(1-methyl-3-phenyl-1H-pyrazol-4-yl)quinazolin-6-yl)propanamide] |
| 2.8 | 1.7 | 5.6 | COc1cc2ncnc(-c3cn(C)nc3-c3ccccc3)c2cc1NC(=O)C1CCN1 (stereo not drawn) [Example 228, N-(7-methoxy-4-(1-methyl-3-phenyl-1H-pyrazol-4-yl)quinazolin-6-yl)azetidine-2-carboxamide] |
| 4.9 | 2.1 | 12.8 | COc1cc2ncnc(-c3cn(C)nc3-c3ccccc3)c2cc1-c1cnc(C(C)(C)O)s1 [Example 149, 2-(5-(7-methoxy-4-(1-methyl-3-phenyl-1H-pyrazol-4-yl)quinazolin-6-yl)thiazol-2-yl) propan-2-ol] |
| 2.9 | 1.6 | 8 | CC(C)Oc1cc2ncnc(-c3cn(C)nc3-c3ccccc3)c2cc1OC(C)C [Example 26, 6,7-diisopropoxy-4-(1-methyl-3-phenyl-1H-pyrazol-4-yl)quinazoline] |
| 9.3 | 5.6 | 9.5 | COc1cc2ncnc(-c3cn(C)nc3-c3ccccc3)c2cc1OC(=O)N1C[C@@H](C)OC[C@@H]1C (racemic) [Example 91, trans-rac-7-methoxy-4-(1-methyl-3-phenyl-1H-pyrazol-4-yl)quinazolin-6-yl (2R,5S)-2,5-dimethylmorpholine-4-carboxylate or cis-rac-7-methoxy-4-(1-methyl-3-phenyl-1H-pyrazol-4-yl)quinazolin-6-yl (2S,5S)-2,5-dimethylmorpholine-4-carboxylate] |
| 30.4 | 1.7 | 5.9 | CCOc1cc2ncnc(-c3cn(C)nc3-c3ccccc3)c2nc1NC(=O)C12CC(N(C)C)(C1)C2 [Example 420, 3-(dimethylamino)-N-(7-ethoxy-4-(1-methyl-3-phenyl-1H-pyrazol-4-yl)pyrido[3,2-d]pyrimidin-6-yl)bicyclo[1.1.1]pentane-1-carboxamide] |
| 4.8 | 3.4 | 4.5 | CCOc1cc2ncnc(-c3cn(C)nc3-c3ccccc3)c2cc1OC1CCNCC1 [Example 8, 7-ethoxy-4-(1-methyl-3-phenyl-1H-pyrazol-4-yl)-6-(piperidin-4-yloxy)quinazoline] |
| 4.1 | 2.4 | 8.5 | COc1cc2ncnc(-c3cn(C)nc3-c3ccccc3)c2cc1O[C@H]1CN(C)C[C@H]1F [Example 4, 6-(((3S,4R)-4-fluoro-1-methylpyrrolidin-3-yl)oxy)-7-methoxy-4-(1-methyl-3-phenyl-1H-pyrazol-4-yl)quinazoline] |
| 6.4 | 3.2 | 11.3 | COc1cc2ncnc(-c3cn(C)nc3-c3ccccc3)c2cc1OC(=O)N1CCO[C@H](C)[C@@H]1C [Example 94, 7-methoxy-4-(1-methyl-3-phenyl-1H-pyrazol-4-yl)quinazolin-6-yl (2R,3S)-2,3-dimethylmorpholine-4-carboxylate] |
| 1.3 | 0.8 | 2.6 | CCOc1cc2ncnc(-c3cn(C)nc3-c3ccccc3)c2cc1OC1CCOCC1 [Example 24, 7-ethoxy-4-(1-methyl-3-phenyl-1H-pyrazol-4-yl)-6-((tetrahydro-2H-pyran-4-yl)oxy)quinazoline] |
